# Data: article PMC9525273 (Nature Communications, 2022)
# Several values for one entry are separate records, joined by “and”; a condition that tells them apart may be missing. Equal values may be shown once. Read-outs that look alike come from different tables or passages of the source.
# Experiments:
# NF54^CTL parasites = assay: P. falciparum proliferation assay (72 h, flow cytometry, SYBR Green I/MitoTracker); format: cell-based, Plasmodium falciparum; settings: for IC50: NF54, NF54CTL
# Outline: (§1)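 Predominantly ring-stage cultures at 0.3% parasitaemia, 1% haematocrit, in medium with 10% O+ human serum; compound exposure 72 h, DMSO <0.5% (v/v). Live parasites counted by flow cytometry with SYBR Green I and 200 nM MitoTracker Deep Red. IC50/IC90 from linear interpolation of dose-response data.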
# NF54^G358S-1 parasites = assay: as above; format: cell-based, Plasmodium falciparum
# Outline: as §1
# [1] = target: T1, PfATP4^WT (membranes from Dd2-Polδ parasites) (Plasmodium falciparum, UniProt A0A143ZZK9); assay: Membrane ATPase assay, ATP4-associated (Na+-dependent) ATPase activity; format: biochemical; settings: for PfATP4-associated ATPase activity (% of control): single experiments
# T1 sequence (A0A143ZZK9 1-1264): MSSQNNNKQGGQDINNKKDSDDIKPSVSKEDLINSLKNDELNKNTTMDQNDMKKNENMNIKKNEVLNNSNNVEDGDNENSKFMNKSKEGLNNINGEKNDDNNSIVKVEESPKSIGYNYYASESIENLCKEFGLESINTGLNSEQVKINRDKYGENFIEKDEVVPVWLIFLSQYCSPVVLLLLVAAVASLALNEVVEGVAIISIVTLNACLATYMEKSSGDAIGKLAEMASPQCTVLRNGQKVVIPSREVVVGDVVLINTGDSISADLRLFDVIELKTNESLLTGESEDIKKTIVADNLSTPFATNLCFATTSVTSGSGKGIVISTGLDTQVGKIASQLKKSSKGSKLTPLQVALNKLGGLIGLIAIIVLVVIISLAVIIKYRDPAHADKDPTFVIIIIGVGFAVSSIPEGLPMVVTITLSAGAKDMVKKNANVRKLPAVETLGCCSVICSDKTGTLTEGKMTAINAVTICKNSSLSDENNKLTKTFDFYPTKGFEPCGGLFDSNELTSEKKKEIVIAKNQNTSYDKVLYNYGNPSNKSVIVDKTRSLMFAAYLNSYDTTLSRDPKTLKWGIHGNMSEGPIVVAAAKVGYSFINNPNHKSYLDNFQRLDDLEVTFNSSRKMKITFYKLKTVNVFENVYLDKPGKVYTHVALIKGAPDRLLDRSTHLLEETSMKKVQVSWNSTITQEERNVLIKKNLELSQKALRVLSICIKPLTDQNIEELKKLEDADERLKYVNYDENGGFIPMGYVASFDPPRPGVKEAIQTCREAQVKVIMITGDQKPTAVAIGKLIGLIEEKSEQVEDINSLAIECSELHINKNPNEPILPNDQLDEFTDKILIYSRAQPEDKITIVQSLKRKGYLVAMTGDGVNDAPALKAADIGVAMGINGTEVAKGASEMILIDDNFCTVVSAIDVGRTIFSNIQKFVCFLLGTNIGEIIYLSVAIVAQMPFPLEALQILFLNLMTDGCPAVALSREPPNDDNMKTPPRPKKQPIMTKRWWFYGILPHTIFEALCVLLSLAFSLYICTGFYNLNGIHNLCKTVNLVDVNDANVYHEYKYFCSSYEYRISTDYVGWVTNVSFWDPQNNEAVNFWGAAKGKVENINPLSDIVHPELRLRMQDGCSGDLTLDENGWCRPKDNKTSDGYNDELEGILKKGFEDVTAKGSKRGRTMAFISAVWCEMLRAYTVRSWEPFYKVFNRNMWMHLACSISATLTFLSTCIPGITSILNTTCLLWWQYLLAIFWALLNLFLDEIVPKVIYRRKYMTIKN
# Procedure: Membranes from isolated P. falciparum or extracellular T. gondii parasites were prepared by lysing parasites in ice-cold deionized water containing a 1:500 dilution of Protease Inhibitor Cocktail Set III (Merck Millipore), then washing the membrane preparation three times in ice-cold deionized water (with protease inhibitors present for the first two washes)[15]. Protein concentrations in the membrane preparations were measured using a Bradford assay. The PiColorLock Gold Phosphate Detection System (Innova Biosciences) was used to measure the production of Pi from hydrolysis of ATP[15]. Membrane preparations were diluted in either a high Na^+ solution (yielding final conditions in the reactions of 150 mM NaCl, 20 mM KCl, 2 mM MgCl2, 50 mM Tris, pH 7.2) or a Na^+-free solution (yielding final conditions of 150 mM choline chloride, 20 mM KCl, 2 mM MgCl2, 50 mM Tris, pH 7.2) to achieve a total protein concentration of 50 μg/mL. […] The reactions were performed at 37 °C, and were initiated by the addition of 1 mM ATP (Na2ATP۰3H2O; MP Biomedicals) and terminated 10 min later by adding 100 μL of reaction mixture (in duplicate) to 25 μL “Gold mix” in a 96-well plate. “Stabiliser” was added 3 min later, and the plates incubated at room temperature in the dark for 60 min before measuring absorbance at 635 nm. Background values (averaged from wells containing all components, but to which ATP was not added until after the membrane was exposed to Gold mix) were subtracted from the data. For each treatment, the ATPase activity associated with the (Na^+-dependent) PfATP4 and TgATP4 proteins was calculated by subtracting data obtained in the low Na^+ condition (containing only the 2 mM Na^+ introduced on addition of 1 mM Na2ATP) from that obtained in the high Na^+ condition.
smiles,measurement,setting,value
C[C@H]1Cc2c([nH]c3cc(Cl)c(F)cc23)[C@@]2(N1)C(=O)Nc1ccc(Cl)cc12 [Cipargamin],FC (IC50),NF54^CTL parasites; NF54CTL compared to NF54WT,1.0 fold
same,FC (IC90),NF54^CTL parasites; NF54CTL compared to NF54WT,1.0 fold
same,IC90,"NF54^CTL parasites; NF54CTL parasites, individual experiments, read-out: IC90 values",3.6 nM and 3.4 nM
same,IC90,"NF54^CTL parasites; Plasmodium falciparum, NF54, NF54CTL parasites, individual experiments, read-out: IC90 values",4.1 nM
same,IC90,"NF54^CTL parasites; Plasmodium falciparum, NF54, NF54CTL parasites, mean of the experiments, read-out: IC90 values, MEAN",3.7 nM
same,IC50,"NF54^CTL parasites; Plasmodium falciparum, 10% human serum, read-out: IC50 ± SEM",2.6 ± 0.1 nM
same,IC50,"NF54^CTL parasites; Plasmodium falciparum, MEAN, source data of Fig. 2, read-out: IC50 values, MEAN",2.55 nM
same,IC50,"NF54^G358S-1 parasites; NF54G358S-1, single experiments, source data of Fig. 2 (nM in Supplementary Table 5), read-out: IC50 values",2030 nM and 1970 nM and 2280 nM
same,FC (IC50),NF54^G358S-1 parasites; NF54G358S-1 compared to NF54WT,768.6 fold
same,FC (IC90),NF54^G358S-1 parasites; NF54G358S-1 compared to NF54WT,910.8 fold
same,IC90,"NF54^G358S-1 parasites; NF54G358S-1 parasites, individual experiments, read-out: IC90 values",3.46 µM (2×) and 3.39 µM
same,IC50,"NF54^G358S-1 parasites; Plasmodium falciparum, NF54, NF54G358S-1, 10% human serum, read-out: IC50 ± SEM",2030 ± 93.9 nM
same,IC90,"NF54^G358S-1 parasites; Plasmodium falciparum, NF54, NF54G358S-1, 10% human serum, read-out: IC90 ± SEM",3461 ± 30.7 nM
same,IC50,"NF54^G358S-1 parasites; Plasmodium falciparum, NF54, NF54G358S-1, MEAN, source data of Fig. 2, read-out: IC50 values, MEAN",2030 nM
same,IC50,"NF54^G358S-1 parasites; Plasmodium falciparum, NF54, NF54G358S-1, single experiments, source data of Fig. 2 (nM in Supplementary Table 5), read-out: IC50 values",1840 nM
same,IC90,"NF54^G358S-1 parasites; Plasmodium falciparum, NF54, NF54G358S-1 parasites, individual experiments, read-out: IC90 values",3540 nM
same,IC90,"NF54^G358S-1 parasites; Plasmodium falciparum, NF54, NF54G358S-1 parasites, mean of the experiments, read-out: IC90 values, MEAN",3460 nM
same,"IC50 for inhibition of ATP4-associated ATPase activity, MEAN","[1]; Dd2-Polδ membranes, MEAN, source data of Table 1 (nM there)",2.51
same,remaining activity at 3.76 pM,"[1]; Dd2-Polδ, [Cipargamin] 0.00376 nM, MEAN, read-out: PfATP4-associated ATPase activity (% of control)",75.4%
same,remaining activity at 11 pM,"[1]; Dd2-Polδ, [Cipargamin] 0.011 nM, MEAN, read-out: PfATP4-associated ATPase activity (% of control)",75%
same,PfATP4-associated ATPase activity (% of control),"[1]; Dd2-Polδ, [Cipargamin] 0.011 nM, 11 pM",92.1 % of control and 50.6 % of control and 82.7 % of control and 74.5 % of control
same,remaining activity at 34 pM,"[1]; Dd2-Polδ, [Cipargamin] 0.034 nM, MEAN, read-out: PfATP4-associated ATPase activity (% of control)",76%
same,remaining activity at 0.000102 µM,"[1]; Dd2-Polδ, [Cipargamin] 0.102 nM, MEAN, read-out: PfATP4-associated ATPase activity (% of control)",66.1%
same,remaining activity at 0.000305 µM,"[1]; Dd2-Polδ, [Cipargamin] 0.305 nM, MEAN, read-out: PfATP4-associated ATPase activity (% of control)",60.1%
same,PfATP4-associated ATPase activity (% of control),"[1]; Dd2-Polδ, [Cipargamin] 0.305 nM, 0.000305 µM",59.8 % of control and 42.8 % of control and 70.9 % of control and 66.9 % of control
same,remaining activity at 0.000914 µM,"[1]; Dd2-Polδ, [Cipargamin] 0.914 nM, MEAN, read-out: PfATP4-associated ATPase activity (% of control)",32.6%
same,remaining activity at 0.002743 µM,"[1]; Dd2-Polδ, [Cipargamin] 2.743 nM, MEAN, read-out: PfATP4-associated ATPase activity (% of control)",25.1%
same,remaining activity at 0.00823 µM,"[1]; Dd2-Polδ, [Cipargamin] 8.230 nM, MEAN, read-out: PfATP4-associated ATPase activity (% of control)",-9.5%
same,remaining activity at 0.024691 µM,"[1]; Dd2-Polδ, [Cipargamin] 24.691 nM, MEAN, read-out: PfATP4-associated ATPase activity (% of control)",-14.7%
same,remaining activity at 0.074074 µM,"[1]; Dd2-Polδ, [Cipargamin] 74.074 nM, MEAN, read-out: PfATP4-associated ATPase activity (% of control)",-19.7%
same,remaining activity at 0.222222 µM,"[1]; Dd2-Polδ, [Cipargamin] 222.222 nM, MEAN, read-out: PfATP4-associated ATPase activity (% of control)",-16.9%
same,remaining activity at 0.666667 µM,"[1]; Dd2-Polδ, [Cipargamin] 666.667 nM, MEAN, read-out: PfATP4-associated ATPase activity (% of control)",-29.5%
same,remaining activity at 1.25 pM,"[1]; Dd2-Polδ, [Cipargamin] […], MEAN, read-out: PfATP4-associated ATPase activity (% of control)",85.7%
same,IC50 for ATP4-associated ATPase activity,"[1]; membranes from Dd2-Polδ, mean ± SEM",2.5 ± 0.8 (4) nM
